Values after ≈ are worked out from the molar mass of the structure shown.

Holding throughout (assay): ≥ marks a high value that may be exact or a test limit, other limits are often not marked, values filed in µg/mL are converted to µM
Assay [1] has as its system Staphylococcus aureus ATCC 25923.
Assay [2] deals with Escherichia coli ATCC 25922.
Assay [3] concerns Pseudomonas aeruginosa ATCC 27853.

For the compound `CSCC[C@H](NC(=O)[C@H](CC(N)=O)NC(=O)[C@H](Cc1ccccc1)NC(=O)CNC(=O)[C@H](CC(=O)O)NC(=O)[C@H](CC(C)C)NC(=O)[C@H](CCCCN)NC(=O)[C@H](CCSC)NC(=O)[C@H](CCC(=O)O)NC(=O)[C@@H](N)CC(=O)O)C(=O)N[C@@H](Cc1cnc[nH]1)C(=O)N[C@@H](CC(C)C)C(=O)N[C@@H](CCC(=O)O)C(N)=O` [DEMKLDGFNMHLE], the minimum inhibitory concentration (MIC) in assay [1] is 40.5 µM (≈ 63.9 µg/mL); in assay [2] it was 20 µM (≈ 31.6 µg/mL).
As to `CC(C)[C@H](NC(=O)[C@H](C)NC(=O)[C@@H](N)Cc1ccccc1)C(=O)N[C@H](C(=O)N[C@@H](Cc1c[nH]c2ccccc12)C(=O)N[C@@H](C)C(=O)N[C@H](C(=O)N[C@@H](CCCCN)C(=O)N[C@@H](Cc1c[nH]c2ccccc12)C(=O)N[C@@H](Cc1c[nH]c2ccccc12)C(=O)N[C@@H](CCCCN)C(=O)NCC(N)=O)[C@@H](C)O)[C@@H](C)O` [FAVTWATKWWKG], the values for the MIC in assay [1] and in assay [2] were 100 µM (≈ 148 µg/mL) and above 125 µM, respectively.
Regarding `CC(C)[C@H](NC(=O)[C@@H]1CCCN1C(=O)[C@@H](N)Cc1ccccc1)C(=O)N[C@H](C(=O)N[C@@H](Cc1c[nH]c2ccccc12)C(=O)N[C@@H](CCCN=C(N)N)C(=O)N[C@H](C(=O)N[C@@H](CCCCN)C(=O)N[C@@H](Cc1c[nH]c2ccccc12)C(=O)N[C@@H](Cc1c[nH]c2ccccc12)C(=O)N[C@@H](CCCCN)C(=O)NCC(N)=O)[C@@H](C)O)[C@@H](C)O` [FPVTWRTKWWKG], the MIC in assay [1] was above 3.1 µM; in assay [2] it was 15.5 µM (≈ 24.7 µg/mL).
In the case of `CC[C@H](C)[C@H](NC(=O)CN)C(=O)NCC(=O)N[C@@H](CCCN=C(N)N)C(=O)N[C@@H](CCCCN)C(=O)N[C@@H](Cc1ccccc1)C(=O)N[C@@H](CC(C)C)C(=O)NCC(=O)NCC(=O)N[C@H](C(=O)N[C@@H](CCCCN)C(=O)N[C@H](C(=O)N[C@H](C(=O)N[C@@H](Cc1ccccc1)C(=O)N[C@@H](CCCN=C(N)N)C(=O)N[C@@H](CS)C(=O)NCC(=O)N[C@H](C(=O)N[C@@H](CCCCN)C(=O)N[C@@H](CC(=O)O)C(=O)N[C@@H](Cc1ccccc1)C(=O)N[C@@H](C)C(=O)N[C@@H](CO)C(=O)N[C@@H](CCCCN)C(=O)N[C@@H](Cc1cnc[nH]1)C(=O)N[C@@H](CC(C)C)C(=O)N[C@@H](Cc1ccc(O)cc1)C(N)=O)C(C)C)[C@@H](C)O)[C@@H](C)O)C(C)C` [GIGRKFLGGVKTTFRCGVKDFASKHLY], the minimal inhibitory concentration (MIC) in assay [2] was found to be 150 µM (≈ 448 µg/mL).
The same measure, in the same setting: under `CC[C@H](C)[C@H](NC(=O)CN)C(=O)N[C@@H](CCCCN)C(=O)N[C@@H](CC(=O)O)C(=O)N[C@@H](CC(C)C)C(=O)N[C@@H](CC(C)C)C(=O)N[C@@H](CCCCN)C(=O)NCC(=O)N[C@@H](C)C(=O)N[C@@H](C)C(=O)N[C@@H](CCCCN)C(=O)N[C@@H](C)C(=O)N[C@@H](CC(C)C)C(=O)N[C@H](C(=O)N[C@@H](CCCCN)C(=O)N[C@H](C(=O)N[C@H](C(=O)N[C@@H](CC(C)C)C(=O)N[C@@H](Cc1ccccc1)C(N)=O)C(C)C)[C@@H](C)O)C(C)C` [GIKDLLKGAAKALVKTVLF] stands 3 µM (≈ 5.95 µg/mL).
Turning to `CC[C@H](C)[C@H](NC(=O)[C@H](CCCN=C(N)N)NC(=O)[C@H](CCCCN)NC(=O)[C@H](CC(C)C)NC(=O)[C@H](CC(C)C)NC(=O)CN)C(=O)N[C@@H](CCCCN)C(N)=O` [GLLKRIK], the MIC in assay [1] and in assay [2] was above 33.9 µM throughout.
Consider `CC[C@H](C)[C@H](NC(=O)[C@H](CCCN=C(N)N)NC(=O)[C@H](CCCCN)NC(=O)[C@@H](NC(=O)[C@@H](NC(=O)CN)C(C)C)C(C)C)C(=O)N[C@@H](CCCCN)C(=O)N[C@H](C(=O)N[C@H](C(=O)N[C@H](C(N)=O)C(C)C)C(C)C)[C@@H](C)O` [GVVKRIKTVV], for which, in assay [2], the MIC was above 200 µM.
Compound `CC(C)C[C@H](NC(=O)[C@@H](NC(=O)[C@H](CCCCN)NC(=O)CNC(=O)[C@H](Cc1ccccc1)NC(=O)[C@@H](NC(=O)[C@H](CC(=O)O)NC(=O)CNC(=O)[C@H](Cc1c[nH]c2ccccc12)NC(=O)CN)[C@@H](C)O)C(C)C)C(=O)N[C@@H](CCCCN)C(=O)N[C@@H](CC(N)=O)C(=O)N[C@@H](Cc1ccccc1)C(=O)N[C@@H](C)C(=O)N[C@@H](CCCCN)C(=O)N[C@H](C(=O)N[C@@H](C)C(=O)NCC(=O)N[C@H](C(=O)N[C@@H](CCCCN)C(=O)N[C@@H](C)C(=O)N[C@@H](C)C(=O)N[C@@H](CCCCN)C(=O)O)C(C)C)C(C)C` [GWGDTFGKVLKNFAKVAGVKAAK] came in with an MIC in assay [1] above 64 µM.
`C[C@H](NC(=O)[C@H](C)NC(=O)[C@H](CCCCN)NC(=O)[C@H](CCCCN)NC(=O)[C@H](C)NC(=O)[C@H](C)NC(=O)[C@H](CCCCN)NC(=O)[C@H](C)NC(=O)[C@H](C)NC(=O)[C@H](CCCCN)NC(=O)[C@H](CCCCN)NC(=O)[C@H](C)NC(=O)[C@H](C)NC(=O)[C@H](CCCCN)NC(=O)[C@H](C)NC(=O)[C@H](C)NC(=O)[C@H](CCCCN)NC(=O)[C@H](CCCCN)NC(=O)[C@H](C)NC(=O)[C@H](C)NC(=O)[C@@H](N)CCCCN)C(N)=O` [KAAKKAAKAAKKAAKAAKKAA]: the MIC in assay [1] and in assay [2] was 8 µM (≈ 16.2 µg/mL) throughout.
Regarding `CC(C)C[C@H](NC(=O)[C@H](CCCCN)NC(=O)CNC(=O)[C@H](CC(C)C)NC(=O)[C@H](CCCCN)NC(=O)[C@H](CCCCN)NC(=O)CNC(=O)[C@H](CC(C)C)NC(=O)[C@@H](N)CCCCN)C(=O)NCC(=O)N[C@@H](CCCCN)C(=O)N[C@@H](CCCCN)C(=O)N[C@@H](CC(C)C)C(=O)NCC(N)=O` [KLGKKLGKLGKKLG], the minimal inhibitory concentration (MIC) in assay [1] and in assay [2] was 22 µM (≈ 32.3 µg/mL) in each case.
As to `NCCCC[C@H](NC(=O)[C@H](Cc1c[nH]c2ccccc12)NC(=O)[C@H](Cc1c[nH]c2ccccc12)NC(=O)[C@H](CCCCN)NC(=O)[C@H](CCCCN)NC(=O)[C@H](Cc1c[nH]c2ccccc12)NC(=O)[C@@H](N)CCCCN)C(=O)N[C@@H](Cc1c[nH]c2ccccc12)C(=O)N[C@@H](Cc1ccccc1)C(N)=O` [KWKKWWKWF], in assay [2], the MIC came to 2.81 µM (≈ 4 µg/mL).
The compound `CC(C)C[C@H](NC(=O)[C@@H](NC(=O)[C@H](C)NC(=O)CNC(=O)[C@H](Cc1c[nH]c2ccccc12)NC(=O)[C@H](CC(N)=O)NC(=O)[C@@H](N)CC(C)C)C(C)C)C(=O)N[C@@H](CCCCN)C(=O)N[C@@H](Cc1cnc[nH]1)C(=O)N[C@H](C(=O)N[C@H](C(=O)N[C@@H](CCCCN)C(=O)O)C(C)C)C(C)C` [LNWGAVLKHVVK] yielded an MIC in assay [3] of 32 µM (≈ 43.6 µg/mL).
For the compound `CC(C)C[C@H](NC(=O)[C@H](Cc1ccccc1)NC(=O)[C@H](C)NC(=O)[C@H](Cc1c[nH]c2ccccc12)NC(=O)[C@H](Cc1c[nH]c2ccccc12)NC(=O)[C@H](Cc1c[nH]c2ccccc12)NC(=O)[C@@H]1CCCN1C(=O)[C@H](Cc1ccccc1)NC(=O)[C@H](CCCCN)NC(=O)[C@H](CCCCN)NC(=O)[C@@H](N)C(C)C)C(=O)N[C@@H](CCCCN)C(=O)N[C@@H](CCCCN)C(N)=O` [VKKFPWWWAFLKK], the MIC in assay [2] was 4 µM (≈ 7.05 µg/mL).
`NC(=O)[C@H](Cc1c[nH]c2ccccc12)NC(=O)[C@H](CCCN=C(N)N)NC(=O)[C@H](Cc1c[nH]c2ccccc12)NC(=O)[C@H](CCCN=C(N)N)NC(=O)[C@H](Cc1c[nH]c2ccccc12)NC(=O)[C@@H](N)Cc1c[nH]c2ccccc12` [WWRWRW]: the figures for the MIC in assay [3], in assay [1] and in assay [2] were 18.6 µM (≈ 20 µg/mL), 4.65 µM (≈ 5 µg/mL) and 9.3 µM (≈ 9.99 µg/mL), respectively.

The MIC is the lowest concentration that inhibits growth of the organism.

The values are drawn from DBAASP.
